Positions count from the first letter of the chain named. Read-outs that look alike come from different tables or passages of the source.
Experiments:
human TAS2R7 = target: T1, human TAS2R7 (Homo sapiens, UniProt Q9NYW3); assay: Calcium mobilization assay, HEK293 cells transfected with TAS2R7 and Gα16-gust44; format: cell-based
T1 construct: first 45 residues of rat somatostatin receptor 3 (signal peptide) (N); expressed in transfected cells; host or cells: HEK293 (PEAKrapid, ATCC CRL-2828)
T1 sequence (Q9NYW3 1-318): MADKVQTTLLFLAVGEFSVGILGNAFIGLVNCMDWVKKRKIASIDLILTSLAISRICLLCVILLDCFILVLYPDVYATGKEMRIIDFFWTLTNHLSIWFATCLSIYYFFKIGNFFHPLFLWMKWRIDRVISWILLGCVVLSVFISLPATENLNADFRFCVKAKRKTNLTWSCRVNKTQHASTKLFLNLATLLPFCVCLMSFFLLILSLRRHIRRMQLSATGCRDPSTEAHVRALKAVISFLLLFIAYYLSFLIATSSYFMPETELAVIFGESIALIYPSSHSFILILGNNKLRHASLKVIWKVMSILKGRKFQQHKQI
From the text: (§1) The coding sequences of human TAS2Rs were amplified from human genomic DNA, then subcloned into pcDNA3.1(+) vector, with the herpes simplex virus glycoprotein D epitope (HSV) at the C-terminal and a signal peptide consisting of the first 45 amino acid residues of the rat somatostatin receptor 3 at the N-terminal, essentially as described previously ([Bufe et al. 2002]). Point mutations in human TAS2R7 (NCBI Reference Sequence: NP_076408.1) were constructed by site-directed mutagenesis. All the constructs were confirmed by Sanger sequencing.
All tested compounds were purchased from Sigma–Aldrich, with the exception of diphenidol hydrochloride (Reagent World) and L-praziquantel (manufactured by Shaoxing Pharmaceutical Co. Ltd.). All the metal ions were dissolved in the assay solution (130 mM NaCl, 5 mM KCl, 2 mM CaCl2, and 10 mM glucose; pH 7.4) unless specified otherwise, and the bitter compounds (diphenidol, quinine, and chlorphenamine) were dissolved first in dimethyl sulfoxide (DMSO) as stock solution and then diluted with the assay solution; the final DMSO concentration was below 0.5%, with the exception of cromolyn, which is dissolved in the assay solution directly. For our initial screening (Table 1), Hanks’ balanced salt solution (HBSS, ThermoFisher, catalog no. 14025134) supplemented with 10 mM hydroxyethyl piperazineethanesulfonic acid (HEPES) were used as the assay buffer.
(§2) Human embryonic kidney 293 (PEAKrapid, ATCC # CRL-2828) cells were cultured in Opti-MEM medium with 4% fetal bovine serum. One day before transfection, cells were seeded on a 96-well plate at a density of 25 000 per well. Cells were then transiently transfected with a TAS2R construct (0.1 µg/well) along with a G protein Gα16-gust44 (0.1 µg/well) construct by Lipofectamine 2000 (0.5 µl/well). For controls, only Gα16-gust44 was used (mock transfection). Twenty-four hours after transfection, cells were washed with HBSS including 10 mM HEPES and loaded with Fluo-4 in the dark for 1 h. After incubation, cells were washed 2 times with HBSS (including 10 mM HEPES), incubated in the dark for another 30 min, and then washed with assay solution once more before running the assay using a FlexStation III reader. Relative fluorescence units (excitation at 494 nm, emission at 516 nm, and auto cutoff at 515 nm) were read every 2 s for 2 min. Calcium mobilization traces were recorded.
(§3) Calcium mobilization traces were raw data obtained from single wells. Changes in fluorescence (ΔF) were calculated as the peak fluorescence minus baseline fluorescence ([Lei et al. 2015]). The calcium mobilization was quantified as the percentage of change (ΔF) relative to baseline (F). […] Calcium mobilization traces and bar graphs along with dose-dependent plots were all generated by GraphPad Prism 7. Analysis of variance with Dunnett’s multiple comparisons test was used for statistical analysis. *P < 0.05.
To determine whether a TAS2R responds to metal ions, we expressed all 25 human bitter receptors individually in HEK293 cells (PEAKrapid) by transient transfection of a TAS2R along with a coupling chimeric G protein, Gα16-gust44. All TAS2Rs were cloned from human genomic DNA. Activation of human TAS2Rs was monitored by the calcium mobilization assay ([Lei et al. 2015]). We tested these receptors individually for their responses toward metal ions: ZnSO4 (20 mM), CuSO4 (20 mM), and MgCl2 (20 mM) (Table 1, Figure 1A). […] To determine the breadth of tuning of TAS2R7 toward metal ions, we also tested MnCl2 (20 mM), Al2(SO4)3 ([…]), and CaCl2 (20 mM) (Figure 1B).

[1] = tested on: mock-transfected HEK293 cells (Gα16-gust44 only); assay: Calcium mobilization assay, mock-transfected cells (Gα16-gust44 only); format: cell-based, human; details: any concentration tested (cromolyn 10 mM)
Experimental: as §2
as §3, with “Analysis of variance with Dunnett’s multiple comparisons test was used for statistical analysis. *P < 0.05.” left out

[2] = target: T2, human TAS2R7 E271^7.39 to leucine mutant (Homo sapiens, UniProt Q9NYW3, E271L); assay: Calcium mobilization assay, TAS2R7 mutant E271L; format: cell-based; details: 20 mM metal ions except 0.16 mM Al2(SO4)3; cromolyn 10 mM; Figure 6C
T2 construct: signal peptide: first 45 amino acid residues of rat somatostatin receptor 3 (N); expressed in transfected cells; host or cells: HEK293 PEAKrapid (ATCC CRL-2828), transient, co-transfected with Gα16-gust44
T2 sequence (Q9NYW3 1-318 E271L): T1 sequence (Q9NYW3 1-318) with E271L
From the text: as §1
Human embryonic kidney 293 (PEAKrapid, ATCC # CRL-2828) cells were cultured in Opti-MEM medium with 4% fetal bovine serum. […] After incubation, cells were washed 2 times with HBSS (including 10 mM HEPES), incubated in the dark for another 30 min, and then washed with assay solution once more before running the assay using a FlexStation III reader. Relative fluorescence units (excitation at 494 nm, emission at 516 nm, and auto cutoff at 515 nm) were read every 2 s for 2 min. Calcium mobilization traces were recorded.
Calcium mobilization traces were raw data obtained from single wells. Changes in fluorescence (ΔF) were calculated as the peak fluorescence minus baseline fluorescence ([Lei et al. 2015]). The calcium mobilization was quantified as the percentage of change (ΔF) relative to baseline (F). […]

With O=C(O)c1cc(=O)c2c(OCC(O)COc3cccc4oc(C(=O)O)cc(=O)c34)cccc2o1 [cromolyn, reference compound] as the compound, how does the “Response of TAS2R7-transfected cells at higher dose” value (human TAS2R7; 10 mM) read?
Its value is “robust response”.

And the EC50 (human TAS2R7; Figure 4B, read-out: EC50, TAS2R7, dose-response analysis)?
The EC50 was 5.9 mM.

What about the EC50 (human TAS2R7; assay solution containing calcium, Figures 3A, 4C, read-out: EC50, TAS2R7, in the presence of calcium) of the same compound?
The EC50 was 6.67 mM.

What about the EC50 (human TAS2R7; assay solution containing no calcium, Figures 3A, 4C, read-out: EC50, TAS2R7, in the absence of calcium) of the same compound?
The EC50 was 5.22 mM.

And the “Maximal response of TAS2R7 in the absence versus presence of calcium” value (human TAS2R7; assay solution without calcium compared with calcium)?
The value was “smaller”.

And the “Compounds triggering detectable responses in cells transfected with TAS2R7” value (human TAS2R7; at the concentrations reported previously (Meyerhof et al. 2010), Figure 4A)?
The value was “none”.

What about the “Response of mock-transfected cells” value [1] of the same compound?
Its value is “not”.

And the “Response of E271 to leucine mutant receptor” value [2]?
Its value is “slightly reduced responses”.

Source: PMC6538953, “Metal Ions Activate the Human Taste Receptor TAS2R7” (Chemical Senses, 2019)
